Reference: ChEMBL document CHEMBL1130478, “Mono and bis double ester prodrugs of novel aminomethyl-THF 1-methylcarbapenems” (Bioorg Med Chem Lett, 1997)
In brackets after ≈: the same amount, converted by molar mass.

Columns and labels:
Format in all cases: functional
[1] = test system: Acinetobacter calcoaceticus; assay: In vitro antibacterial activity against Acinetobacter calcoaceticus (GC 756) following preincubation in mouse serum
Citrobacter freundii [2] = assay: In vitro antibacterial activity against C. freundii(GC 2211) following pre-incubation in mouse serum
Citrobacter freundii [3] = assay: In vitro antibacterial activity against C. freundii(GC 2211) without preincubation in mouse serum
[4] = biological target: T1, Dipeptidase 1 (Sus scrofa) (UniProt P22412); assay: Relative hydrolysis by hog Dehydropeptidase
T1 sequence (whole entry): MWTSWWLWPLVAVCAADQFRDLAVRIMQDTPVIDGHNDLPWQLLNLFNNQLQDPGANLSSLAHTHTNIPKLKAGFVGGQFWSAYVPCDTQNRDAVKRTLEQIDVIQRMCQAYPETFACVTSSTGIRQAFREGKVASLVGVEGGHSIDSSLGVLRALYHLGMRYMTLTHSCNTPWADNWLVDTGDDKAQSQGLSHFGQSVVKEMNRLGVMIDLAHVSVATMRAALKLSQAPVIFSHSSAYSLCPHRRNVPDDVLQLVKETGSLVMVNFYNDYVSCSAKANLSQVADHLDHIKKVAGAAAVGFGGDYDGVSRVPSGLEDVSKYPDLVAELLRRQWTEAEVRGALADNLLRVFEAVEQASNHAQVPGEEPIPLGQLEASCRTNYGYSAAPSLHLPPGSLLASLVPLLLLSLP

Enterococcus faecalis [5] = assay: In vitro antibacterial activity against E. faecalis(GC 842) without pre-incubation in mouse serum
Enterococcus faecalis [6] = assay: In vitro antibacterial activity against E. faecalis(GC 842) following pre-incubation in mouse serum
Enterobacter cloacae [7] = assay: In vitro antibacterial activity against E. cloacae(GC 2209) following preincubation in mouse serum
Enterobacter cloacae [8] = assay: In vitro antibacterial activity against E. cloacae(GC 2209) without pre-incubation in mouse serum
Enterococcus faecium [9] = assay: In vitro for antibacterial activity against E. faecium(GC 1182) without pre-incubation in mouse serum
Escherichia coli [10] = assay: In vitro antibacterial activity expressed as MIC against Escherichia coli (ATCC 25922) following pre-incubation in mouse serum
Escherichia coli [11] = assay: In vitro antibacterial activity expressed as MIC against Escherichia coli (ATCC 25922) without pre-incubation in mouse serum
Escherichia coli [12] = assay: In vitro antibacterial activity expressed as MIC against E. coli(GC 1792) following pre-incubation in mouse serum
Escherichia coli [13] = assay: In vitro antibacterial activity expressed as MIC against E. coli(GC 1792) without pre-incubation in mouse serum
Escherichia coli [14] = assay: In vitro antibacterial activity expressed as MIC against E. coli(GC 2205) following pre-incubation in mouse serum
Escherichia coli [15] = assay: In vitro antibacterial activity expressed as MIC against E. coli(GC 2205) without pre-incubation in mouse serum
Mus musculus [16] = assay: Antibacterial activity against Escherichia coli (311) infection in mice after single oral dose, activity expressed as ED50
Mus musculus [17] = assay: Antibacterial activity against Escherichia coli (311) infection in mice after single subcutaneous dose, activity expressed as ED50; conditions: sc
Morganella morganii [18] = assay: In vitro antibacterial activity against M. morganii(GC 2213) following pre-incubation in mouse serum
Morganella morganii [19] = assay: In vitro antibacterial activity against M. morganii(GC 2213) without pre-incubation in mouse serum
Pseudomonas aeruginosa [20] = assay: In vitro antibacterial activity against Pseudomonas aeruginosa (ATCC 27853) following pre-incubation in mouse serum
Pseudomonas aeruginosa [21] = assay: In vitro antibacterial activity against Pseudomonas aeruginosa (ATCC 27853) without pre-incubation in mouse serum
Pseudomonas aeruginosa [22] = assay: In vitro antibacterial activity against P. aeruginosa(GC 1544 oprd) without pre-incubation in mouse serum
Staphylococcus aureus [23] = assay: In vitro antibacterial activity against S aureus(ATCC 29213) following preincubation in mouse serum
Staphylococcus aureus [24] = assay: In vitro antibacterial activity against S. aureus(ATCC 29213) without pre-incubation in mouse serum
Staphylococcus aureus [25] = assay: In vitro antibacterial activity against S. aureus(GC 2220 MRSA) without pre-incubation in mouse serum
[26] = test system: Stenotrophomonas maltophilia; assay: In vitro antibacterial activity against X. maltophilia(GC 562) without pre-incubation in mouse serum
Staphylococcus aureus [27] = assay: In vitro antibacterial activity against S. aureus(GC 2220 MRSA) following pre-incubation in mouse serum
Pseudomonas aeruginosa [28] = assay: In vitro antibacterial activity against P. aeruginosa(GC 1544 oprd) following pre-incubation in mouse serum
[29] = test system: Stenotrophomonas maltophilia; assay: In vitro antibacterial activity against X. maltophilia(GC 562) following pre-incubation in mouse serum
[30] = test system: Acinetobacter calcoaceticus; assay: In vitro antibacterial activity against Acinetobacter calcoaceticus (GC 756) without preincubation in mouse serum
Enterococcus faecium [31] = assay: In vitro for antibacterial activity against E. faecium(GC 1182) following pre-incubation in mouse serum

Row | SMILES | MIC [1] | MIC (Citrobacter freundii [2]) | MIC (Citrobacter freundii [3]) | MIC (Enterococcus faecalis [5]) | MIC (Enterococcus faecalis [6]) | MIC (Enterobacter cloacae [7]) | MIC (Enterobacter cloacae [8]) | MIC (Enterococcus faecium [9]) | MIC (Escherichia coli [10]) | MIC (Escherichia coli [11]) | MIC (Escherichia coli [12]) | MIC (Escherichia coli [13]) | MIC (Escherichia coli [14]) | MIC (Escherichia coli [15]) | ED50 (Mus musculus [16]) | ED50 (Mus musculus [17]) | MIC (Morganella morganii [18]) | MIC (Morganella morganii [19]) | MIC (Pseudomonas aeruginosa [20]) | MIC (Pseudomonas aeruginosa [21]) | further results
1 | CC(C)C(=O)OCOC(=O)NC[C@H]1OCC[C@H]1SC1=C(C(=O)[O-])N2C(=O)[C@H]([C@@H](C)O)C2[C@H]1C.[Na+] (some centres undefined) | 4 µg/mL | 0.25 µg/mL | 2 µg/mL | 4 µg/mL | 1 µg/mL | 0.06 µg/mL | 1 µg/mL | > 128 µg/mL | < 0.06 µg/mL | 0.25 µg/mL | < 0.06 µg/mL | 0.5 µg/mL | < 0.06 µg/mL | 0.12 µg/mL | 5.1 mg/kg | 0.59 mg/kg | 0.5 µg/mL | 4 µg/mL | 8 µg/mL | 64 µg/mL | Relative hydrolysis [4]: 2.9; MIC (Pseudomonas aeruginosa [22]): > 128 µg/mL; MIC (Staphylococcus aureus [23]): 0.03 µg/mL; MIC (Staphylococcus aureus [24]): 0.25 µg/mL; MIC (Staphylococcus aureus [25]): 8 µg/mL; MIC [26]: > 128 µg/mL; MIC (Staphylococcus aureus [27]): 2 µg/mL; MIC (Pseudomonas aeruginosa [28]): 16 µg/mL; MIC [29]: > 128 µg/mL; MIC [30]: 32 µg/mL; MIC (Enterococcus faecium [31]): 64 µg/mL
2 | CC(=O)OC(C)OC(=O)NC[C@H]1OCC[C@H]1SC1=C(C(=O)[O-])N2C(=O)[C@H]([C@@H](C)O)C2[C@H]1C.[Na+] (some centres undefined) | 4 µg/mL | 0.25 µg/mL | 4 µg/mL | 4 µg/mL | 1 µg/mL | < 0.06 µg/mL | 2 µg/mL | > 128 µg/mL | < 0.06 µg/mL | 0.12 µg/mL | < 0.06 µg/mL | 0.25 µg/mL | < 0.06 µg/mL | 0.12 µg/mL | 4.9 mg/kg | 0.65 mg/kg | 1 µg/mL | 2 µg/mL | 16 µg/mL | 64 µg/mL | MIC (Pseudomonas aeruginosa [22]): > 128 µg/mL; MIC (Staphylococcus aureus [23]): < 0.06 µg/mL; MIC (Staphylococcus aureus [24]): 0.5 µg/mL; MIC (Staphylococcus aureus [25]): 32 µg/mL; MIC [26]: > 128 µg/mL; MIC (Staphylococcus aureus [27]): 8 µg/mL; MIC (Pseudomonas aeruginosa [28]): 32 µg/mL; MIC [29]: > 128 µg/mL; MIC [30]: 32 µg/mL; MIC (Enterococcus faecium [31]): 64 µg/mL
3 | CCOC(=O)OCOC(=O)C1=C(S[C@@H]2CCO[C@@H]2CNC(=O)OCOC(=O)C(C)(C)C)[C@H](C)C2[C@@H]([C@@H](C)O)C(=O)N12 (some centres undefined) | 8 µg/mL (≈ 13.3 µM) | 0.5 µg/mL (≈ 0.83 µM) | > 128 µg/mL | 64 µg/mL (≈ 106 µM) | 4 µg/mL (≈ 6.64 µM) | 0.25 µg/mL (≈ 0.415 µM) | > 128 µg/mL | > 128 µg/mL | 0.06 µg/mL (≈ 0.0996 µM) | 128 µg/mL (≈ 212 µM) | 0.12 µg/mL (≈ 0.199 µM) | > 128 µg/mL | 0.12 µg/mL (≈ 0.199 µM) | 1 µg/mL (≈ 1.66 µM) | 0.96 mg/kg | 0.73 mg/kg | 4 µg/mL (≈ 6.64 µM) | > 128 µg/mL | 32 µg/mL (≈ 53.1 µM) | > 128 µg/mL | Relative hydrolysis [4]: 20; MIC (Pseudomonas aeruginosa [22]): > 128 µg/mL; MIC (Staphylococcus aureus [23]): 0.12 µg/mL (≈ 0.199 µM); MIC (Staphylococcus aureus [24]): 4 µg/mL (≈ 6.64 µM); MIC (Staphylococcus aureus [25]): 64 µg/mL (≈ 106 µM); MIC [26]: > 128 µg/mL; MIC (Staphylococcus aureus [27]): 2 µg/mL (≈ 3.32 µM); MIC (Pseudomonas aeruginosa [28]): 64 µg/mL (≈ 106 µM); MIC [29]: > 128 µg/mL; MIC [30]: > 128 µg/mL; MIC (Enterococcus faecium [31]): > 128 µg/mL
4 | CCCC(=O)OCOC(=O)NC[C@H]1OCC[C@H]1SC1=C(C(=O)[O-])N2C(=O)[C@H]([C@@H](C)O)C2[C@H]1C.[Na+] (some centres undefined) | 2 µg/mL | 0.12 µg/mL | 4 µg/mL | 2 µg/mL | 1 µg/mL | 0.06 µg/mL | 2 µg/mL | 128 µg/mL | < 0.06 µg/mL | 0.5 µg/mL | < 0.06 µg/mL | 0.5 µg/mL | < 0.06 µg/mL | < 0.06 µg/mL | 3.4 mg/kg | 0.26 mg/kg | 0.5 µg/mL | 2 µg/mL | 8 µg/mL | 64 µg/mL | Relative hydrolysis [4]: 5.9; MIC (Pseudomonas aeruginosa [22]): > 128 µg/mL; MIC (Staphylococcus aureus [23]): 0.03 µg/mL; MIC (Staphylococcus aureus [24]): 0.12 µg/mL; MIC (Staphylococcus aureus [25]): 8 µg/mL; MIC [26]: > 128 µg/mL; MIC (Staphylococcus aureus [27]): 1 µg/mL; MIC (Pseudomonas aeruginosa [28]): 16 µg/mL; MIC [29]: > 128 µg/mL; MIC [30]: 32 µg/mL; MIC (Enterococcus faecium [31]): 64 µg/mL
5 | CCOC(=O)OCOC(=O)C1=C(S[C@@H]2CCO[C@@H]2CNC(=O)OC(C)OC(=O)C(C)(C)C)[C@H](C)C2[C@@H]([C@@H](C)O)C(=O)N12 (some centres undefined) | 8 µg/mL (≈ 13 µM) | 0.5 µg/mL (≈ 0.811 µM) | > 128 µg/mL | 32 µg/mL (≈ 51.9 µM) | 2 µg/mL (≈ 3.24 µM) | 0.12 µg/mL (≈ 0.195 µM) | > 128 µg/mL | > 128 µg/mL | 0.06 µg/mL (≈ 0.0973 µM) | 128 µg/mL (≈ 208 µM) | 0.06 µg/mL (≈ 0.0973 µM) | > 128 µg/mL | 0.06 µg/mL (≈ 0.0973 µM) | 1 µg/mL (≈ 1.62 µM) | 0.42 mg/kg | 0.46 mg/kg | 2 µg/mL (≈ 3.24 µM) | > 128 µg/mL | 32 µg/mL (≈ 51.9 µM) | > 128 µg/mL | Relative hydrolysis [4]: 19; MIC (Pseudomonas aeruginosa [22]): > 128 µg/mL; MIC (Staphylococcus aureus [23]): 0.06 µg/mL (≈ 0.0973 µM); MIC (Staphylococcus aureus [24]): 4 µg/mL (≈ 6.49 µM); MIC (Staphylococcus aureus [25]): 64 µg/mL (≈ 104 µM); MIC [26]: > 128 µg/mL; MIC (Staphylococcus aureus [27]): 4 µg/mL (≈ 6.49 µM); MIC (Pseudomonas aeruginosa [28]): 64 µg/mL (≈ 104 µM); MIC [29]: > 128 µg/mL; MIC [30]: > 128 µg/mL; MIC (Enterococcus faecium [31]): 64 µg/mL (≈ 104 µM)
